# From patent US11981658B2, “Substituted aminopyridine compounds as EGFR inhibitors” (YUHAN CORPORATION, priority 2021, dated 2024)
# Read-outs that look alike come from different tables or passages of the source.
# What was measured:
# [1] = molecular target: EGFR Del19/T790M/C797S (Homo sapiens, UniProt P00533, C797S/DEL746-750/T790M); assay: Biochemical EGFR kinase inhibition assay (Lance Ultra TR-FRET), triple mutant del19/T790M/C797S
# In short: (§1)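 Step 1: compound in kinase buffer, 0.003–10 μM. Step 2: kinase reaction 1 h at room temperature. Step 4: TR-FRET read at 615/665 nm; IC50 calculated.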
# [2] = molecular target: EGFR L858R/T790M/C797S (Homo sapiens, UniProt P00533, C797S/L858R/T790M); assay: Biochemical EGFR kinase inhibition assay (Lance Ultra TR-FRET), triple mutant L858R/T790M/C797S
# In short: as §1
# [3] = molecular target: EGFR Del19/C797S (Homo sapiens, UniProt P00533, C797S/DEL746-750); assay: Biochemical EGFR kinase inhibition assay (Lance Ultra TR-FRET), double mutant del19/C797S
# In short: as §1
# [4] = molecular target: EGFR L858R/C797S (Homo sapiens, UniProt P00533, C797S/L858R); assay: Biochemical EGFR kinase inhibition assay (Lance Ultra TR-FRET), double mutant L858R/C797S
# In short: as §1
# [5] = molecular target: EGFR wildtype (WT) (Homo sapiens, UniProt P00533); assay: Biochemical EGFR kinase inhibition assay (Lance Ultra TR-FRET), wildtype
# In short: as §1
# [6] = IC50 Del19/T790M/C797S (nM), 100 μM ATP
# [7] = Km ATP, read-out: IC50 Del19/T790M/C797S (nM), Km ATP
# [8] = IC50 L858R/T790M/C797S (nM), 100 μM ATP
# [9] = Km ATP, read-out: IC50 L858R/T790M/C797S (nM), Km ATP
# [10] = IC50 Del19/C797S (nM), 100 μM ATP
# [11] = Km ATP, read-out: IC50 Del19/C797S (nM), Km ATP
# [12] = IC50 L858R/C797S (nM), 100 μM ATP
# [13] = Km ATP, read-out: IC50 L858R/C797S (nM), Km ATP
# [14] = Km ATP, read-out: IC50 WT (nM), Km ATP
# [15] = ATP at Km, read-out: IC50 Del19/C797S (nM), Km ATP
# [16] = ATP at Km, read-out: IC50 L858R/C797S (nM), Km ATP
# [17] = ATP at Km, read-out: IC50 WT (nM), Km ATP
# [18] = ATP at Km, read-out: IC50 Del19/T790M/C797S (nM), Km ATP
# [19] = ATP at Km, read-out: IC50 L858R/T790M/C797S (nM), Km ATP
# Sequence of EGFR L858R/C797S (P00533 25-1210 C797S/L858R): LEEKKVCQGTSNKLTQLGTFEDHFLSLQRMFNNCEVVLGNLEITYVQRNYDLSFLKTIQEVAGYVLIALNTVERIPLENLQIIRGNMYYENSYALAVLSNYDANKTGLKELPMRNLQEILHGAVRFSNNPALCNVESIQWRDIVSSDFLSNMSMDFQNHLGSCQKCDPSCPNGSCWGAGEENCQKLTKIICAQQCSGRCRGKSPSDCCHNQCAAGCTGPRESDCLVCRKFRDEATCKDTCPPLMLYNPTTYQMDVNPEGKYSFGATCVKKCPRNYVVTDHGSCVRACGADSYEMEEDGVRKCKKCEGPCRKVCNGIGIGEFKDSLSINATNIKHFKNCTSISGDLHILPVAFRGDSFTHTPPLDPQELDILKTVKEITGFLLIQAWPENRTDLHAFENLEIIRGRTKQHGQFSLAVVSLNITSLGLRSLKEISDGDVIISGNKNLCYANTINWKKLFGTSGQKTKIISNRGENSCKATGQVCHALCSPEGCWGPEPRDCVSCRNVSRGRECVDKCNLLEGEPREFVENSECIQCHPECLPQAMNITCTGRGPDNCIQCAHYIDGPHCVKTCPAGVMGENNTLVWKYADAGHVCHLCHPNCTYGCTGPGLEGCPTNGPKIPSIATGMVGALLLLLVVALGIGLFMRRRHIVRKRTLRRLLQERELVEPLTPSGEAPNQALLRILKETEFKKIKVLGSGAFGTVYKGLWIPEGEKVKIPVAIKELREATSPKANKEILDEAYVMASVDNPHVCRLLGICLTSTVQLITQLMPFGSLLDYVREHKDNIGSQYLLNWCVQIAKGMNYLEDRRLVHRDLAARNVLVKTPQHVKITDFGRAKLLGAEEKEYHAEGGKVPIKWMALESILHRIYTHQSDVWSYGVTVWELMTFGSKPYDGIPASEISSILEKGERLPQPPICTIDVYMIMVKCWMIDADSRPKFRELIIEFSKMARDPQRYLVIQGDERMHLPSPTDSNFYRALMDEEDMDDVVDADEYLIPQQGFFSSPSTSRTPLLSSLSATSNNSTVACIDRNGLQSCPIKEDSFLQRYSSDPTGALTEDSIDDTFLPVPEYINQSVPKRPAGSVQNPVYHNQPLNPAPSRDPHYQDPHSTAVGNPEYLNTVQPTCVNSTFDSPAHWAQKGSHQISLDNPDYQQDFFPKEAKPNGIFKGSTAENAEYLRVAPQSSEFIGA
# Sequence of EGFR L858R/T790M/C797S (P00533 25-1210 T790M/C797S/L858R): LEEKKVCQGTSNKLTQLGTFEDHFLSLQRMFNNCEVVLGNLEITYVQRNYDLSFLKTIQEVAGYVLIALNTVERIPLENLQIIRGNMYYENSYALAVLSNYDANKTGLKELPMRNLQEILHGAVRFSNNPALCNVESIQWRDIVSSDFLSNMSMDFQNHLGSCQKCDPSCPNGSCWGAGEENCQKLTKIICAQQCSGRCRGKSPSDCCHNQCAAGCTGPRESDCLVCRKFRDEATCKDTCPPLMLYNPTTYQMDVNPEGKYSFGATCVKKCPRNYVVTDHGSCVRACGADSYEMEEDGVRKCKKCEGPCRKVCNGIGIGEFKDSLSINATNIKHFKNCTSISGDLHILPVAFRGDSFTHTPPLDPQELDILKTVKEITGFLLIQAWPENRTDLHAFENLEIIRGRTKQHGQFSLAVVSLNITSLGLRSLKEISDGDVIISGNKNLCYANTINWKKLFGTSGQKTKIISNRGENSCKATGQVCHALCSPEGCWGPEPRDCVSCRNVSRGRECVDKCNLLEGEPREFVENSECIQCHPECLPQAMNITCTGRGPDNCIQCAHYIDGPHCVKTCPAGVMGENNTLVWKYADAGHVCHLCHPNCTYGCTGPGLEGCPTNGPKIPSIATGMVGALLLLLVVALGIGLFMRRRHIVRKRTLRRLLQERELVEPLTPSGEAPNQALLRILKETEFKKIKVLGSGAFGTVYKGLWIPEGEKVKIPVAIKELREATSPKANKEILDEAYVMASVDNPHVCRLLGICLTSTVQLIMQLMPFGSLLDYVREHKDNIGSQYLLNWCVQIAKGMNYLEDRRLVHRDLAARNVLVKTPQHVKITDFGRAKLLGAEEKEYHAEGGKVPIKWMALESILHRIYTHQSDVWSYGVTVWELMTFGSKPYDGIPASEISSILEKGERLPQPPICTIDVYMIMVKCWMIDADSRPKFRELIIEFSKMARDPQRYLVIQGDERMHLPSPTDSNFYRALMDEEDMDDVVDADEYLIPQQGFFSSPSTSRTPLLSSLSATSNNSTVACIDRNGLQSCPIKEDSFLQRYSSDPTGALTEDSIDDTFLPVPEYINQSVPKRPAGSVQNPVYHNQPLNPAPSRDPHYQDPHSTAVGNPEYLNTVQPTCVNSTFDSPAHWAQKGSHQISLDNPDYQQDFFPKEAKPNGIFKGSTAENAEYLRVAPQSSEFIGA
# Sequence of EGFR Del19/T790M/C797S (P00533 with tags, fused parts or gaps DEL746-750/T790M/C797S): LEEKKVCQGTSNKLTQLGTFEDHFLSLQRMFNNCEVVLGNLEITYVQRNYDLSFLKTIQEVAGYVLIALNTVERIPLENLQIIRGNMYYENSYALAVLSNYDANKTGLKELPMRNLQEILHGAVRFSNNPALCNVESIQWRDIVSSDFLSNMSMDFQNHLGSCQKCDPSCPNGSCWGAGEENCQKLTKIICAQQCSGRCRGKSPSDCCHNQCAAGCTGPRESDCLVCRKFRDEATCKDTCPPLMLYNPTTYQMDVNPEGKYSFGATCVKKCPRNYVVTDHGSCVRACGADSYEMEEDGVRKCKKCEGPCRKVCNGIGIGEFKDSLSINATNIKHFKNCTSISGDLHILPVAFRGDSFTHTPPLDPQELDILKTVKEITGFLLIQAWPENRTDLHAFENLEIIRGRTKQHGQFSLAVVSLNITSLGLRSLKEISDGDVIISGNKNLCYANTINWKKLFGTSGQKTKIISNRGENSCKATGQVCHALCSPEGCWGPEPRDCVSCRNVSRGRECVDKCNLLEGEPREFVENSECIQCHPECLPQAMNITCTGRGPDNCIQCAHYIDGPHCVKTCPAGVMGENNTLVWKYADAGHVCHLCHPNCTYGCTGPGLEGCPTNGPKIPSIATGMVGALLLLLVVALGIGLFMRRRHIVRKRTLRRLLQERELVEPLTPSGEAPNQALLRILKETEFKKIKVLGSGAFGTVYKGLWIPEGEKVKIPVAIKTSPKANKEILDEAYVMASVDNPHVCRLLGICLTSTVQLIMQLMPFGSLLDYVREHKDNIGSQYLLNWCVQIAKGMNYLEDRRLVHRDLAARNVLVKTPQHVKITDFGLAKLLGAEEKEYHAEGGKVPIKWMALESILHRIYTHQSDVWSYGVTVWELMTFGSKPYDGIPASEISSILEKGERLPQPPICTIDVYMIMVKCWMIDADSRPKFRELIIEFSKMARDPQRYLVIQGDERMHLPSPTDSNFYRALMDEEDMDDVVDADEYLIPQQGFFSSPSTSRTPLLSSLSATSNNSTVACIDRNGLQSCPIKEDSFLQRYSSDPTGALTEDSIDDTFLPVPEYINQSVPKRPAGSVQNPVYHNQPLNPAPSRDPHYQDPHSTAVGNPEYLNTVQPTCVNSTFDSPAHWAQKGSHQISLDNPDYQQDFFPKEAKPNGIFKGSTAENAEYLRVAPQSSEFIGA
# Sequence of EGFR Del19/C797S (P00533 with tags, fused parts or gaps DEL746-750/C797S): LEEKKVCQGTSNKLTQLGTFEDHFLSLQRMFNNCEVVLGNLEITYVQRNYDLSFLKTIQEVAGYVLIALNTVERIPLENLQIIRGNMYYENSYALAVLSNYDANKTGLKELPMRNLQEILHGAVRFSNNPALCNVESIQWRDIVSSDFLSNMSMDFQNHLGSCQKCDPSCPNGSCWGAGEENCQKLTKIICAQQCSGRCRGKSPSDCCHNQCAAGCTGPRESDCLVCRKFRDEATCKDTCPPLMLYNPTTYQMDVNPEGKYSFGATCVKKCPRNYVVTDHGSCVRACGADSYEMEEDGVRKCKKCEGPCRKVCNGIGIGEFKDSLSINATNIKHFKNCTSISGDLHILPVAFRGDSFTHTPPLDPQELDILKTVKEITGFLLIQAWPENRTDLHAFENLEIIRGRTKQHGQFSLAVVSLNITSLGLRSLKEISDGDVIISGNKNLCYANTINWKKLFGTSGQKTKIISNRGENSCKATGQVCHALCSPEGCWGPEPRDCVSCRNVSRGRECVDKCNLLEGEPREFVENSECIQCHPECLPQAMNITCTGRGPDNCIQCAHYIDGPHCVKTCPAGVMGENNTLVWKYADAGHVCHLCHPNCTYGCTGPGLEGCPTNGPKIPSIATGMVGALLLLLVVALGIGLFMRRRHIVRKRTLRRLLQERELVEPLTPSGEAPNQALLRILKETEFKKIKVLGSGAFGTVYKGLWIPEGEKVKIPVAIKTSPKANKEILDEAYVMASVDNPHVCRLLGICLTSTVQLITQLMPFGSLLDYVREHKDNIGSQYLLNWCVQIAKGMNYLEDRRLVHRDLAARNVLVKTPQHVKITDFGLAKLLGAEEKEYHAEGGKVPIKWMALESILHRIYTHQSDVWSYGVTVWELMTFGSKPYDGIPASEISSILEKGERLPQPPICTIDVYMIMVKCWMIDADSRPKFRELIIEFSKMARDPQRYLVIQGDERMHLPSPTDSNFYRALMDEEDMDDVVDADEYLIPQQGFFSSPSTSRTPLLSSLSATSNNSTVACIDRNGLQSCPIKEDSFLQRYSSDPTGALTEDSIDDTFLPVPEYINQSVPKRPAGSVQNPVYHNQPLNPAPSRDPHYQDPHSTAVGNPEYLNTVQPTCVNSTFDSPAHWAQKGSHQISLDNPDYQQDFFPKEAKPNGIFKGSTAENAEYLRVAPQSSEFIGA
Structure (SMILES),"IC50 [1, 6] [nM]","IC50 [1, 7] [nM]","IC50 [2, 8] [nM]","IC50 [2, 9] [nM]","IC50 [3, 10] [nM]","IC50 [3, 11] [nM]","IC50 [4, 12] [nM]","IC50 [4, 13] [nM]","IC50 ([5]; IC50 WT (nM), 100 μM ATP) [nM]","IC50 [5, 14] [nM]","IC50 [3, 15] [nM]","IC50 [4, 16] [nM]","IC50 [5, 17] [nM]","IC50 [1, 18] [nM]","IC50 [2, 19] [nM]"
"O=S(=O)(C1CC1)N1CCC(C#Cc2cnc(Nc3ccnc(-c4cnn(S(=O)(=O)C5CC5)c4)n3)cc2N[C@H]2CC[C@@H](O)CC2)CC1 [Example 391, (1s,4s)-4-((2-((2-(1-(Cyclopropylsulfonyl)-1H-pyrazol-4-yl)pyrimidin-4-yl)amino)-5-((1-(cyclopropylsulfonyl)piperidin-4-yl)ethynyl)pyridin-4-yl)amino)cyclohexan-1-ol]",1.3,0.6,2.1,0.4,5.1,3,63.4,19.2,> 10000,25.6,,,,,
"CN(C)C[C@H]1CC[C@@H](Nc2cc(Nc3ccnc(-c4cnn(S(=O)(=O)C5CC5)c4)n3)ncc2C#Cc2cnn(CC3CC3)c2)CC1 [Example 309, 5-((1-(Cyclopropylmethyl)-1H-pyrazol-4-yl)ethynyl)-N^2-(2-(1-(cyclopropylsulfonyl)-1H-pyrazol-4-yl)pyrimidin-4-yl)-N^4-((1s,4s)-4-((dimethylamino)methyl)cyclohexyl)pyridine-2,4-diamine]",1,,1.1,,3.1,,43.8,,7630,,2.4,1,24.3,,
"Cn1cc(C#Cc2cnc(Nc3ccnc(-c4cnn(S(=O)(=O)C5CC5)c4)n3)cc2N2CCCC(C(F)(F)F)C2)cn1 (centres unmarked) [Example 71, 2-(1-(Cyclopropylsulfonyl)-1H-pyrazol-4-yl)-N-(5-((1-methyl-1H-pyrazol-4-yl)ethynyl)-4-(3-(trifluoromethyl)piperidin-1-yl)pyridin-2-yl)pyrimidin-4-amine]",15.7,,52.6,,127,,751,,> 10000,,,,,,
"CN(C)CC1(C)CCN(c2cc(Nc3ccnc(-c4cnn(S(=O)(=O)C5CC5)c4)n3)ncc2C#CC2(C)CC2)CC1 [Example 406, 2-(1-(Cyclopropylsulfonyl)-1H-pyrazol-4-yl)-N-(4-(4-((dimethylamino)methyl)-4-methylpiperidin-1-yl)-5-((1-methylcyclopropyl)ethynyl)pyridin-2-yl)pyrimidin-4-amine]",0.9,,1.3,,4.3,3.3,58.2,2.7,> 10000,35.2,,,,,
"Cn1cc(C#Cc2cnc(Nc3ccnc(-c4cnn(S(=O)(=O)C5CC5)c4)n3)cc2N2CCC(CO)CC2)c(C(F)(F)F)n1 [Example 90, (1-(2-((2-(1-(Cyclopropylsulfonyl)-1H-pyrazol-4-yl)pyrimidin-4-yl)amino)-5-((1-methyl-3-(trifluoromethyl)-1H-pyrazol-4-yl)ethynyl)pyridin-4-yl)piperidin-4-yl)methanol]",3.6,,11.8,,28.5,,37.2,,> 10000,,,,,,
"Cn1cnc(C#Cc2cnc(Nc3ccnc(-c4cnn(S(=O)(=O)C5CC5)c4)n3)cc2N[C@H]2CC[C@@H](O)CC2)n1 [Example 167, (1s,4s)-4-((2-((2-(1-(Cyclopropylsulfonyl)-1H-pyrazol-4-yl)pyrimidin-4-yl)amino)-5-((1-methyl-1,2,4-triazol-3-yl)ethynyl)pyridin-4-yl)amino)cyclohexan-1-ol]",3.4,,15.4,,88.8,,532,,> 10000,,81.8,24,279,3.7,3.5
"O=S(=O)(C1CC1)N1CCC(C#Cc2cnc(Nc3ccnc(-c4cnn(S(=O)(=O)C5CC5)c4)n3)cc2N[C@H]2CC[C@@H](CO)CC2)CC1 [Example 390, ((1s,4s)-4-((2-((2-(1-(Cyclopropylsulfonyl)-1H-pyrazol-4-yl)pyrimidin-4-yl)amino)-5-((1-(cyclopropylsulfonyl)piperidin-4-yl)ethynyl)pyridin-4-yl)amino)cyclohexyl)methanol]",5.3,2.5,8.3,1.1,11.6,7.3,192,30.1,> 10000,47.7,,,,,
"CC(C)Nc1cc(Nc2ccnc(-c3cnn(S(=O)(=O)C4CC4)c3)n2)ncc1C#CCCCCNC(=O)N1CCOCC1 [Example 209, N-(6-(6-((2-(1-(Cyclopropylsulfonyl)-1H-pyrazol-4-yl)pyrimidin-4-yl)amino)-4-(isopropylamino)pyridin-3-yl)hex-5-yn-1-yl)morpholine-4-carboxamide]",2.6,,4.4,,120,,112,,> 10000,,,,,,
"O=C(c1ccc(C#Cc2cnc(Nc3ccnc(-c4cnn(S(=O)(=O)C5CC5)c4)n3)cc2N[C@H]2CC[C@@H](CO)CC2)cc1)N1CCC(O)CC1 [Example 441, (4-((6-((2-(1-(Cyclopropylsulfonyl)-1H-pyrazol-4-yl)pyrimidin-4-yl)amino)-4-(((ls, 4s)-4-(hydroxymethyl)cyclohexyl)amino)pyridin-3-yl)ethynyl)phenyl)(4-hydroxypiperidin-1-yl)methanone]",2.2,2.1,0.8,0.5,2.3,,47.1,,> 10000,,,,,,

# Compounds with a lower IC50 [1, 6], results first:
"IC50 [1, 6] [nM]","IC50 [1, 7] [nM]","IC50 [2, 8] [nM]","IC50 [2, 9] [nM]","IC50 [3, 10] [nM]","IC50 [3, 11] [nM]","IC50 [4, 12] [nM]","IC50 [4, 13] [nM]","IC50 ([5]; IC50 WT (nM), 100 μM ATP) [nM]","IC50 [5, 14] [nM]","IC50 [3, 15] [nM]","IC50 [4, 16] [nM]","IC50 [5, 17] [nM]","IC50 [1, 18] [nM]","IC50 [2, 19] [nM]",Structure (SMILES)
0.5,1,0.7,0.1,1,0.5,12.2,0.6,3390,6.5,,,,,,"CN(C)CCC1CCCN(c2cc(Nc3ccnc(-c4cnn(S(=O)(=O)C5CC5)c4)n3)ncc2C#Cc2cnn(C)c2)C1 (centres unmarked) [Example 396, 2-(1-(Cyclopropylsulfonyl)-1H-pyrazol-4-yl)-N-(4-(3-(2-(dimethylamino)ethyl)piperidin-1-yl)-5-((1-methyl-1H-pyrazol-4-yl)ethynyl)pyridin-2-yl)pyrimidin-4-amine]"
0.5,,0.5,,1.2,,36,,3400,,0.5,1.2,5.3,0.6,0.3,"CC1(CO)CCN(c2cc(Nc3ccnc(-c4cnn(S(=O)(=O)C5CC5)c4)n3)ncc2C#Cc2ccccn2)CC1 [Example 259, (1-(2-((2-(1-(Cyclopropylsulfonyl)-1H-pyrazol-4-yl)pyrimidin-4-yl)amino)-5-(pyridin-2-ylethynyl)pyridin-4-yl)-4-methylpiperidin-4-yl)methanol]"
0.3,,0.4,,2.4,,12.2,,6180,,1.1,1.1,9.6,0.3,0.1,"CN(C)C[C@H]1CC[C@@H](Nc2cc(Nc3ccnc(-c4cnn(S(=O)(=O)C5CC5)c4)n3)ncc2C#Cc2cnn(C)c2)CC1 [Example 312, N^2-(2-(1-(Cyclopropylsulfonyl)-1H-pyrazol-4-yl)pyrimidin-4-yl)-N^4-((1s,4s)-4-((dimethylamino)methyl)cyclohexyl)-5-((1-methyl-1H-pyrazol-4-yl)ethynyl)pyridine-2,4-diamine]"
0.3,0.3,0.4,0.1,2.5,1.5,53.2,3.3,3730,9.4,,,,,,"COC1(O)CCN(c2cc(Nc3ccnc(-c4cnn(S(=O)(=O)C5CC5)c4)n3)ncc2C#CC2CCN(C)C2)CC1 (centres unmarked) [Example 371, 1-(2-((2-(1-(Cyclopropylsulfonyl)-1H-pyrazol-4-yl)pyrimidin-4-yl)amino)-5-((1-methylpyrrolidin-3-yl)ethynyl)pyridin-4-yl)-4-methoxypiperidin-4-ol]"
0.2,,0.9,,3,,23.1,,8440,,,,,,,"CC1(CO)CCN(c2cc(Nc3ccnc(-c4cnn(S(=O)(=O)C5CC5)c4)n3)ncc2C#CCN2CCS(=O)(=O)CC2)CC1 [Example 289, 4-(3-(6-((2-(1-(Cyclopropylsulfonyl)-1H-pyrazol-4-yl)pyrimidin-4-yl)amino)-4-(4-(hydroxymethyl)-4-methylpiperidin-1-yl)pyridin-3-yl)prop-2-yn-1-yl)thiomorpholine 1,1-dioxide]"
